Data: publication PMC6683399, “Identification of a novel S6K1 inhibitor, rosmarinic acid methyl ester, for treating cisplatin-resistant cervical cancer” (BMC Cancer, 2019)

Molecular target: T1, S6K1 (p70 S6K1, ribosomal protein S6 kinase 1) (Homo sapiens, UniProt P23443)
T1 construct: gene RPS6KB1; recombinant active S6K1 (R&D systems 896-KS)
Assay: in vitro kinase assay with recombinant S6K1 and GST-S6 (also H2B) substrate, […] ATP, immunoblot readout
Assay type: biochemical

T1 sequence (P23443 whole entry): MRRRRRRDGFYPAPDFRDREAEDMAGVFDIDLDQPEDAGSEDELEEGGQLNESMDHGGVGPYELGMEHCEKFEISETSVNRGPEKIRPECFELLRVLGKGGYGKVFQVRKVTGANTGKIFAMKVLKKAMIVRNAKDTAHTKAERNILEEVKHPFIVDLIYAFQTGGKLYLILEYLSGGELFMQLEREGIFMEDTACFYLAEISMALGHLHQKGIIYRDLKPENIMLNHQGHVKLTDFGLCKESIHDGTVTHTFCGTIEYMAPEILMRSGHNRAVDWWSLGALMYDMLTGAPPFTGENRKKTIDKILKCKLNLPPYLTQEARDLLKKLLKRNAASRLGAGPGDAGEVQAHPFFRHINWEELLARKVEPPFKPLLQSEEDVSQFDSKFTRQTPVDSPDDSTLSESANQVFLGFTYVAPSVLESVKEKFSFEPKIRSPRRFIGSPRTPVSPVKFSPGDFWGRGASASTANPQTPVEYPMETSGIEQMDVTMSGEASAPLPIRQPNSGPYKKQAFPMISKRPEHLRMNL

## COC(=O)[C@@H](Cc1ccc(O)c(O)c1)OC(=O)/C=C/c1ccc(O)c(O)c1 [RAME, rosmarinic acid methyl ester]
  in vitro kinase assay with recombinant S6K1 and GST-S6 (also H2B) substrate, 100: RAME inhibited the phosphorylation of S6 in dose-dependent manner (Fig. 2b)
